Paper PMC11079024, “Identification of a family of species-selective complex I inhibitors as potential anthelmintics” (Nature Communications, 2024)
Where “and” joins values, the source holds several entries; their conditions need not be identical. Equal entries are not always repeated. Where two headings read alike, the source gives them in different places.

Biological target: C. elegans (N2) complex I (NADH:ubiquinone oxidoreductase) (Caenorhabditis elegans, UniProt P24887+Q93873+Q94360)
Assay: biochemical
Format: biochemical
In short: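 Complex I rate: initial linear slope of A600 over 15 min, expressed as percent of solvent control. Triple freeze-thawed mitochondria (0.2 mg/mL) in KPi pH 7.5, BSA 3 mg/mL, NADH 80 μM, decylubiquinone 60 μM, DCIP 160 μM, antimycin A, KCN.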

[1] = wild-type C. elegans mitochondria, mean of replicates, read-out: percent (%) in vitro complex I activity relative to solvent control
[2] = wild-type C. elegans mitochondria, single replicate, read-out: percent (%) in vitro complex I activity relative to solvent control
[3] = C. elegans, Mean of replicates, read-out: Complex I activity, dose-response data
[4] = C. elegans, individual replicates (Rep), read-out: Complex I activity, dose-response data

Chain of C. elegans (N2) complex I (NADH:ubiquinone oxidoreductase) (Q94360 17-199): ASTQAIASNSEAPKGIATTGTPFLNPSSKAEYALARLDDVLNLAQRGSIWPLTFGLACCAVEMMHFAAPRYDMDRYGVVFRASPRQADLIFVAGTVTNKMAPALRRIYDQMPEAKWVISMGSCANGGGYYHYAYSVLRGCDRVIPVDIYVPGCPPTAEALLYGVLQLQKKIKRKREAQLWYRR
Chain of C. elegans (N2) complex I (NADH:ubiquinone oxidoreductase) (P24887 whole entry): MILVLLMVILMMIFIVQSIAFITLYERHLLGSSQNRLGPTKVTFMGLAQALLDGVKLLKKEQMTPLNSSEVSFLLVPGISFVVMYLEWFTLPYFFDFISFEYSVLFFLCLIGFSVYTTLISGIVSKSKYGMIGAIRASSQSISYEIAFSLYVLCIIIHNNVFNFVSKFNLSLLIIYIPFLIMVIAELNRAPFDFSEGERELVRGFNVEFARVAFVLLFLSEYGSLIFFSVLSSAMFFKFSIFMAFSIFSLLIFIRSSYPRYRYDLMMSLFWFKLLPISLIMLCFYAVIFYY
Chain of C. elegans (N2) complex I (NADH:ubiquinone oxidoreductase) (Q93873 31-482): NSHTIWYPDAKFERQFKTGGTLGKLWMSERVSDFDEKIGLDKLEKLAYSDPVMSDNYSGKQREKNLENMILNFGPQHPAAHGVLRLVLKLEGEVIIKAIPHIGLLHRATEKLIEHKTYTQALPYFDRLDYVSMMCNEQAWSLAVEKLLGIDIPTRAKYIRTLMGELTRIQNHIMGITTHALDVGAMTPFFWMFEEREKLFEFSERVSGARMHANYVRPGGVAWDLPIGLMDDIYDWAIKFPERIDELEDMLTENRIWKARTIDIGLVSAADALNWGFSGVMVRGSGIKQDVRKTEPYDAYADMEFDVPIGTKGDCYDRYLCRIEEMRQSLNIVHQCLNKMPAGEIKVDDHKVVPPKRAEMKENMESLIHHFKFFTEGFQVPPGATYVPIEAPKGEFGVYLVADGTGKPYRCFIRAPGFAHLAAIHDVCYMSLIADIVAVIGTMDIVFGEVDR

`COc1cc2c(cc1OC)C(/C=C/c1ccc(N(C)C)cc1)=NCC2` [NPD6303] gave a remaining activity at 0.125 µM [1] of 93.1%, a remaining activity at 0.125 µM [2] of 103% and a remaining activity at 0.313 µM [1] of 88%. It also gave a remaining activity at 0.313 µM [2] of 83.6%, a remaining activity at 0.625 µM [1] of 108% and a remaining activity at 0.625 µM [2] of 106%. For the same compound, the remaining activity at 1.5 µM [1] was 100%, the remaining activity at 1.5 µM [2] was 100% and the remaining activity at 3 µM [1] was 89.5%. The remaining activity at 3 µM [2] was 82.5%, the remaining activity at 15 µM (15 µM, wild-type C. elegans mitochondria, mean of replicates, read-out: percent (%) in vitro complex I activity relative to solvent control) was 47.6% and the remaining activity at 37.5 µM (37.5 µM, wild-type C. elegans mitochondria, mean of replicates, read-out: percent (%) in vitro complex I activity relative to solvent control) was 15%. The remaining activity at 75 µM (75 µM, wild-type C. elegans mitochondria, mean of replicates, read-out: percent (%) in vitro complex I activity relative to solvent control) was 9.53%, the activity at 100 µM (100 µM compound, relative to solvent control, mean (SEM), read-out: % Activity Complex I) was 12.7% and the “Percent in vitro activity, Complex I (single replicate Rep1-Rep4)” value (100 μM of NPD compound, C. elegans mitochondria, individual biological replicates, 100 µM) was 10.460% and 12.057% and 12.075%. It also gave an activity at 100 µM (100 μM of NPD compound, C. elegans mitochondria, individual biological replicates, read-out: Percent in vitro activity, Complex I (single replicate Rep1-Rep4)) of 16.4%, an activity at 100 µM (100 μM of NPD compound, C. elegans mitochondria, mean of four biological replicates, read-out: Percent in vitro activity, Complex I (Mean)) of 12.7% and an activity at 0.0001 µM (C. elegans, dose 0.0001 µM, Mean of replicates, read-out: Complex I activity, dose-response data) of 98.7%. For the same compound, the “Complex I activity, dose-response data” value (C. elegans, dose 0.0001 µM, individual replicates (Rep)) was 97.469 and 99.188, the activity at 0.0001 µM (C. elegans, dose 0.0001 µM, individual replicates (Rep), read-out: Complex I activity, dose-response data) was 101% and the activity at 0.0005 µM [3] was 100%. The activity at 0.0005 µM [4] was 100%, the activity at 0.001 µM (C. elegans, dose 0.001 µM, Mean of replicates, read-out: Complex I activity, dose-response data) was 98.7% and the “Complex I activity, dose-response data” value (C. elegans, dose 0.001 µM, individual replicates (Rep)) was 94.995 and 103.570. The activity at 0.001 µM (C. elegans, dose 0.001 µM, individual replicates (Rep), read-out: Complex I activity, dose-response data) was 101%, the activity at 0.0025 µM (C. elegans, dose 0.0025 µM, Mean of replicates, read-out: Complex I activity, dose-response data) was 103% and the “Complex I activity, dose-response data” value (C. elegans, dose 0.0025 µM, individual replicates (Rep)) was 97.419 and 110.831. For the same compound, the activity at 0.0025 µM (C. elegans, dose 0.0025 µM, individual replicates (Rep), read-out: Complex I activity, dose-response data) was 106%, the activity at 0.005 µM (C. elegans, dose 0.005 µM, Mean of replicates, read-out: Complex I activity, dose-response data) was 99.6% and the “Complex I activity, dose-response data” value (C. elegans, dose 0.005 µM, individual replicates (Rep)) was 94.468 and 104.617. The activity at 0.005 µM (C. elegans, dose 0.005 µM, individual replicates (Rep), read-out: Complex I activity, dose-response data) was 105%, the activity at 0.013 µM (C. elegans, dose 0.013 µM, Mean of replicates, read-out: Complex I activity, dose-response data) was 97.2% and the “Complex I activity, dose-response data” value (C. elegans, dose 0.013 µM, individual replicates (Rep)) was 91.183 and 107.524. The activity at 0.013 µM (C. elegans, dose 0.013 µM, individual replicates (Rep), read-out: Complex I activity, dose-response data) was 98.9%, the activity at 0.025 µM (C. elegans, dose 0.025 µM, Mean of replicates, read-out: Complex I activity, dose-response data) was 97.1% and the “Complex I activity, dose-response data” value (C. elegans, dose 0.025 µM, individual replicates (Rep)) was 90.226 and 107.714. The activity at 0.025 µM (C. elegans, dose 0.025 µM, individual replicates (Rep), read-out: Complex I activity, dose-response data) was 100%, the activity at 0.063 µM (C. elegans, dose 0.063 µM, Mean of replicates, read-out: Complex I activity, dose-response data) was 95.9% and the “Complex I activity, dose-response data” value (C. elegans, dose 0.063 µM, individual replicates (Rep)) was 89.273 and 101.913. For the same compound, the activity at 0.063 µM (C. elegans, dose 0.063 µM, individual replicates (Rep), read-out: Complex I activity, dose-response data) was 103%, the activity at 0.125 µM (C. elegans, dose 0.125 µM, Mean of replicates, read-out: Complex I activity, dose-response data) was 93.1% and the “Complex I activity, dose-response data” value (C. elegans, dose 0.125 µM, individual replicates (Rep)) was 87.998 and 93.858. The activity at 0.125 µM (C. elegans, dose 0.125 µM, individual replicates (Rep), read-out: Complex I activity, dose-response data) was 103%, the activity at 0.313 µM (C. elegans, dose 0.313 µM, Mean of replicates, read-out: Complex I activity, dose-response data) was 88% and the “Complex I activity, dose-response data” value (C. elegans, dose 0.313 µM, individual replicates (Rep)) was 86.077 and 96.329. The activity at 0.313 µM (C. elegans, dose 0.313 µM, individual replicates (Rep), read-out: Complex I activity, dose-response data) was 83.6%, the activity at 0.625 µM (C. elegans, dose 0.625 µM, Mean of replicates, read-out: Complex I activity, dose-response data) was 108% and the “Complex I activity, dose-response data” value (C. elegans, dose 0.625 µM, individual replicates (Rep)) was 108.371 and 107.823. The activity at 0.625 µM (C. elegans, dose 0.625 µM, individual replicates (Rep), read-out: Complex I activity, dose-response data) was 106%, the activity at 1.5 µM [3] was 100% and the activity at 1.5 µM [4] was 100%. The activity at 3 µM (C. elegans, dose 3 µM, Mean of replicates, read-out: Complex I activity, dose-response data) was 89.5%, the “Complex I activity, dose-response data” value (C. elegans, dose 3 µM, individual replicates (Rep)) was 88.910 and 97.542 and the activity at 3 µM (C. elegans, dose 3 µM, individual replicates (Rep), read-out: Complex I activity, dose-response data) was 82.5%. The activity at 15 µM (C. elegans, dose 15 µM, Mean of replicates, read-out: Complex I activity, dose-response data) was 47.6%, the “Complex I activity, dose-response data” value (C. elegans, dose 15 µM, individual replicates (Rep)) was 33.770 and 49.973 and 56.558 and the activity at 37.5 µM (C. elegans, dose 37.5 µM, Mean of replicates, read-out: Complex I activity, dose-response data) was 15%. For the same compound, the “Complex I activity, dose-response data” value (C. elegans, dose 37.5 µM, individual replicates (Rep)) was 10.655 and 12.339 and 24.559, the activity at 75 µM (C. elegans, dose 75 µM, Mean of replicates, read-out: Complex I activity, dose-response data) was 9.53% and the “Complex I activity, dose-response data” value (C. elegans, dose 75 µM, individual replicates (Rep)) was 11.807 and 4.396 and 17.534. For the same compound, the IC50 (wild-type (N2) mitochondria, read-out: C. elegans Complex I IC50) was 11.9 µM and 11 µM.
